Data set [1] deals with T1, α7 nAChR (Homo sapiens, UniProt P36544).
T1 construct: expressed in transfected cells; host or cells: Xenopus laevis oocytes (injected RNA)
The data set is described as follows: α7 responses on co-application with the type II PAM TQS (silent agonism). The data set is classed as cell-based. The following applies: for α7 functional classification (silent agonist / inactive): inactive alone, active with a PAM = silent agonist. The method, then:
(§1) Compounds were co-applied at a concentration of 100 µM with 30 µM racemic TQS (Figure 3A). All compounds except S4, S5, and S8 gave large responses when co-applied with TQS, consistent with silent agonism of α7 (see Table S1 for ANOVA). Active compounds were also evaluated across a range of concentrations with the alternative PAM, PNU-120596 (Figure 3B). The curve-fit values for Imax (Table 1) should be taken only as approximation of the relative efficacies of the compounds, due to the large variability frequently observed in PNU-120596-potentiated responses, as evidenced by the large SEMs of the responses obtained with high concentrations.
(§2) Figure 3 Responses of α7 nAChR to sulfonium compounds coapplied with PAMs. (A) Potentiation of α7 responses with 30 µM racemic TQS. Shown are the average net-charge responses of seven or eight oocytes ± SEM. (B) Concentration-response studies of peak currents generated by compounds that gave positive responses with TQS, coapplied with 10 µM PNU-120596. Each point represents the average (±SEM) of at least four oocytes.
The human nAChR clones were obtained from Jon Lindstrom (University of Pennsylvania, Philadelphia, PA, USA). Mouse muscle subunit clones were obtained from Jim Boulter (Salk Institute, La Jolla, CA, USA) and Paul Gardner (Dartmouth, Hanover, NH, USA). The human resistance-to-cholinesterase 3 (RIC3) clone was obtained from Millet Treinin (Hebrew University, Jerusalem, Israel) and co-injected with α7 to improve the level and speed of α7 receptor expression without affecting the pharmacological properties of the receptors. Subsequent to linearization and purification of the plasmid DNAs, RNAs were prepared using the mMessage mMachine in vitro RNA transcription kit (Ambion, Austin, TX, USA).
(§3) Experiments were conducted using OpusXpress 6000A (Molecular Devices, Union City, CA, USA). Both the voltage and current electrodes were filled with 3 M KCl. Oocytes were voltage-clamped at −60 mV at room temperature (24 °C). The oocytes were bath-perfused with Ringer’s solution (115 mM NaCl, 2.5 mM KCl, 1.8 mM CaCl2, 10 mM HEPES, and 1 μM atropine, pH 7.2) at 2 mL/min for α7 receptors, or 4 mL/min for heteromeric nAChR. To evaluate the effects of experimental compounds, responses were compared to control ACh-evoked responses, defined as the average of two initial applications of ACh made before test applications. ACh control concentrations were 60 µM for α7 receptors; 100 µM for α4(3)β2(2) and α3β4 receptors; 30 µM for α4β2α6β2β3 and muscle-type (αβ1εδ) receptors; and 10 µM for α4(3)β2(2) and α4(2)β2(2)α5 receptors.
(§4) Solutions were applied from 96-well plates via disposable tips. Drug applications were 12 s in duration, followed by 181 s washout periods for α7 receptors, or 6 s in duration followed by 301 s washout periods for heteromeric nAChR. The responses were calculated as both peak current amplitudes and net charge, as previously described. Data were collected at 50 Hz, filtered at 20 Hz for α7 receptors or filtered at 5 Hz for heteromeric nAChR, and analyzed by Clampfit (Molecular Devices, San Jose, CA, USA) and Excel (Microsoft, Redmond, WA, USA). Data were expressed as means ± SEM from at least four oocytes for each experiment and plotted with Kaleidagraph 4.5.2 (Abelbeck Software, Reading, PA, USA). Multi-cell averages were calculated for comparisons of complex responses. Averages of the normalized data were calculated for each of the 10,322 points in each of the 206.44 s traces (acquired at 50 Hz), as well as the standard errors for those averages.

The target of data set [2] is T1, α7 nAChR. Description: α7 concentration-response on co-application with 10 µM PNU-120596. The data set is classed as cell-based. The following applies: peak currents, co-applied with 10 µM PNU-120596, Hill fit; for IMax (PNU Activation): approximation only. The method, then: as §1, §2, §3, §4
Data set [3] is described as follows: pKa by titration. It is filed as physicochemical. The following applies: phenolic hydroxyl, data not shown for S9, S10, read-out: pKa. The text has this: One of the questions that emerges from the data is why aromatic sulfoniums as structurally similar as S5, S9, and S10 provide different responses when coapplied with TQS. Indeed, compounds S5 and S9 virtually overlap in their best docked poses (Supplementary Figure S1), but the α7 response of S9 and TQS was dramatically greater than that of S5 and TQS (p < 0.001, Table S1). The formation of cation–pi interactions is a key feature of the binding of nicotinic orthosteric ligands, and the electronic distribution of the cation can be compared qualitatively in a series of compounds using molecular electrostatic potentials (MEPs). Analysis of the MEPs shown in Figure 9 reveal that the substituents on the benzene ring can modulate the intensity of the positive charge on the sulfonium center. Compound S5, for instance, has two hydroxyl groups which are strongly electron donating, and in comparison to compound S9, which has only one hydroxyl group, the intensity of the positive charge is […]. Another factor may be that a lone pair on the ortho hydroxyl substituent is donating electron density through space to the neighboring sulfonium, redistributing its positive charge. Compound S10 also has an ortho hydroxyl group, but unlike compound S5, compound S10 also has a nitro group, which is a strong electron-withdrawing group that may offset the electron-donating impact of the ortho hydroxyl group. Inspection of the MEP surface shown in Figure 9 does indicate that, relative to S5, the S10 sulfonium bears greater positive electrostatic potential. Given that compounds such as para-nitrophenol are acidic, with a pKa of ~7 for the phenolic hydroxyl, we also considered whether the deprotonated forms of S5, S9, and S10 might be accessible at the pH of our experiments.
Thus, all three compounds have varying proportions of the phenolic OH in the phenoxide form at the pH of Ringers solution used in the experiments. […] Future work on analogs of these compounds may be focused on substituents that are non-ionizable, and thus preserve a positive molecular charge derived from the sulfonium center.

Molecules are shown by their SMILES. Counter-ions that a name gives are not always drawn.

The term pKa denotes the negative logarithm of the acid dissociation constant. Usually EC50 stands for the concentration at which the effect is half-maximal.

T1 sequence (P36544 23-502): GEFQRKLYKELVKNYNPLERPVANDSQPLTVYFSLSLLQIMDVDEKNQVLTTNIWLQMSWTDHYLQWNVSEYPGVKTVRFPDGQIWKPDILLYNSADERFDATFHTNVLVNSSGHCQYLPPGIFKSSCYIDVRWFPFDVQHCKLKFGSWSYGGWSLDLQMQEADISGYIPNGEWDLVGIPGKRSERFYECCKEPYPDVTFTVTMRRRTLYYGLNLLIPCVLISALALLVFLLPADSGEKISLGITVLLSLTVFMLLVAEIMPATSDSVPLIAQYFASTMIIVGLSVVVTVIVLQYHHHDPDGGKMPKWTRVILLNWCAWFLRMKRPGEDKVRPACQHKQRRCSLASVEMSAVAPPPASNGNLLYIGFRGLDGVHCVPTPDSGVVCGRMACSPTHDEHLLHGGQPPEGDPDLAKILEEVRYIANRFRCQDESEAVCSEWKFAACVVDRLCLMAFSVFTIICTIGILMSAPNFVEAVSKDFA

In the case of `C[S+](C)C.[I-]` [Compound S1, trimethylsulfonium iodide], in data set [1] (100 µM compound with 30 µM racemic TQS, net charge), the “response when co-applied with TQS” value is given as “produced potentiated α7 currents”. Further, the “IMax (PNU Activation)” value in data set [2] is recorded as 9.1 ± 0.05.
For the compound `C[S+](C)c1ccc(O)cc1` [Compound S9, (4-hydroxyphenyl)dimethylsulfonium methyl sulfate], the “relative activity as α7 silent agonist / desensitizer (rank order)” value in data set [1] (100 µM with 30 µM TQS, Figure 3A) was “most desensitizing”. In data set [1], the “α7 functional classification (silent agonist / inactive)” value is listed as “silent agonist activity”. Further, the “IMax (PNU Activation)” value in data set [2] was 3.98 ± 0.14. For the same compound, in data set [3], the pKa is about 7.3.
For `C[S+](C)c1cc([N+](=O)[O-])ccc1O.[Br-]` [Compound S10, (2-hydroxy-5-nitrophenyl)dimethylsulfonium bromide], the “α7 functional classification (silent agonist / inactive)” value in data set [1] is recorded as “silent agonist activity”. Moreover, the “IMax (PNU Activation)” value in data set [2] was found to be 4.6 ± 0.1. Besides, the concentration for a half-maximal effect (EC50) in data set [2] (read-out: EC50 (PNU Activation)) worked out at 45.5 ± 50.6 µM. The pKa in data set [3] was about 5.

For the origin of these results see PMC8464850, “Sulfonium Ligands of the α7 nAChR” (Molecules, 2021).
